Experimental data taken from publication PMC8286840, “Identifying SARS-CoV-2 antiviral compounds by screening for small molecule inhibitors of Nsp3 papain-like protease” (Biochemical Journal, 2021).
Counter-ions that a name gives are not always drawn. Like-named read-outs stand apart in the source and are kept apart here. Where a SMILES comes first, the peptide text is derived from it.

Experiments:
[1] = target: T1, SARS-CoV-2 PLpro (nsp3 1564–1878) (Severe acute respiratory syndrome coronavirus 2, UniProt P0DTD1); test: biochemical; set-up: FRET-quenched peptide (Pro3) cleavage by PLpro, 10 min pre-incubation, slope over 20 min, normalised to no-compound control; conditions: high concentration screen, read-out: % of control remaining
[2] = target: T1, SARS-CoV-2 PLpro (nsp3 1564–1878); test: biochemical; set-up: FRET-quenched peptide (Pro3) cleavage by PLpro, 10 min pre-incubation, slope over 20 min, normalised to no-compound control; conditions: low concentration screen, read-out: % of control remaining

`C[C@H](NC(=O)C(=O)Nc1ccccc1C(C)(C)C)C(=O)N[C@@H](CC(=O)O)C(=O)COc1c(F)c(F)cc(F)c1F` [Emricasan] was tested, and the remaining activity at 3.75 µM ([1]; Well no.=7118) was 95.9% and the remaining activity at 1.25 µM ([2]; Well no.=7118) was 95.7%.

`OC[C@H]1O[C@@H](n2cnc3c(N[C@H]4CCC[C@@H]4O)ncnc32)[C@H](O)[C@@H]1O` [GR79236] was tested, and the remaining activity at 3.75 µM ([1]; Well no.=7817) was 105%, the remaining activity at 3.75 µM ([1]; Well no.=7852) was 93.8% and the remaining activity at 3.75 µM ([1]; Well no.=8455) was 110%. For the same molecule, the remaining activity at 1.25 µM ([2]; Well no.=7817) was 105%, the remaining activity at 1.25 µM ([2]; Well no.=7852) was 94.1% and the remaining activity at 1.25 µM ([2]; Well no.=8455) was 108%.

`OCCC#Cc1nc(-c2ccc(F)cc2)c(-c2ccncc2)n1CCCc1ccccc1` [RWJ-67657] gave a remaining activity at 3.75 µM ([1]; Well no.=2987) of 91.7% and a remaining activity at 1.25 µM ([2]; Well no.=2987) of 94.7%.

In the case of `CC1Cc2ccccc2N1NC(=O)c1ccc(Cl)c(S(N)(=O)=O)c1` (stereo not drawn) [Indapamide], the remaining activity at 3.75 µM ([1]; Well no.=2224) is reported as 103% and the remaining activity at 1.25 µM ([2]; Well no.=2224) is reported as 98.6%.

Work on `COC(=O)[C@@H](N)CSC/C=C(\C)CC/C=C(\C)CCC=C(C)C` [S-Farnesyl-L-cysteine methylester] yielded a remaining activity at 3.75 µM ([1]; Well no.=4566) of 99.1% and a remaining activity at 1.25 µM ([2]; Well no.=4566) of 98.6%.

`C[C@H](NC(=O)[C@@H](N)CCC(=O)O)C(=O)O` [_-L-Glutamyl-L-alanine] (H-Glu-Ala-OH) showed a remaining activity at 3.75 µM ([1]; Well no.=7750) of 104% and a remaining activity at 1.25 µM ([2]; Well no.=7750) of 105%.

`CC(C)C[C@H](NC(=O)[C@@H](O)[C@H](N)Cc1ccccc1)C(=O)O` [Bestatin hydrochloride] was tested, and the remaining activity at 3.75 µM ([1]; Well no.=273) was 97.1% and the remaining activity at 1.25 µM ([2]; Well no.=273) was 96.2%.

Molecule `C[C@]12CC[C@@H]3c4ccc(O)cc4CC[C@H]3[C@@H]1CC[C@@H]2O` [Estradiol] has a remaining activity at 3.75 µM ([1]; Well no.=2034) of 96.6%, a remaining activity at 3.75 µM ([1]; Well no.=6449) of 101% and a remaining activity at 1.25 µM ([2]; Well no.=2034) of 99.3%. It also gave a remaining activity at 1.25 µM ([2]; Well no.=6449) of 98.6%.

Molecule `COc1c(C)cnc(Cn2cnc3c(Cl)nc(N)nc32)c1C` [BIIB021] has a remaining activity at 3.75 µM ([1]; Well no.=5091) of 107% and a remaining activity at 1.25 µM ([2]; Well no.=5091) of 104%.

With `CCC1(c2ccccc2)NC(=O)N(C)C1=O` (stereo not drawn) [Mephenytoin] the remaining activity at 3.75 µM ([1]; Well no.=1774) was 99.4% and the remaining activity at 1.25 µM ([2]; Well no.=1774) was 99.1%.

Molecule `O=C1O[C@]2(CC[C@H](C(=O)Nc3ccn(-c4ccccc4F)n3)CC2)c2cnccc21` [MK-0557] has a remaining activity at 3.75 µM ([1]; Well no.=6987) of 104% and a remaining activity at 1.25 µM ([2]; Well no.=6987) of 104%.

`CCC(C)C(=O)C(=O)O` (stereo not drawn) [3-Methyl-2-oxovaleric acid] gave a remaining activity at 3.75 µM ([1]; Well no.=6977) of 101% and a remaining activity at 1.25 µM ([2]; Well no.=6977) of 100%.

In the case of `O=C1/C(=C/c2ccc(O)c(Br)c2)CN(Cc2ccccc2)C/C1=C\c1ccc(O)c(Br)c1` [CARM1-IN-1], the remaining activity at 3.75 µM ([1]; Well no.=8030) is reported as 88% and the remaining activity at 1.25 µM ([2]; Well no.=8030) is reported as 94.4%.

Work on `CCOc1ccc2ccccc2c1C(=O)N[C@@H]1C(=O)N2[C@@H]1SC(C)(C)[C@@H]2C(=O)O` [Nafcillin Sodium] yielded a remaining activity at 3.75 µM ([1]; Well no.=4690) of 101% and a remaining activity at 1.25 µM ([2]; Well no.=4690) of 104%.

With `O=[N+]([O-])c1ccc(Nc2nc(N3CCOCC3)nc(N3CCOCC3)n2)cc1` [4,6-di(4-morpholinyl)-N-(4-nitrophenyl)-1,3,5-triazin-2-amine] the remaining activity at 3.75 µM ([1]; Well no.=6018) was 92.3% and the remaining activity at 1.25 µM ([2]; Well no.=6018) was 94.4%.

Molecule `CCCSc1ccc2[nH]c(NC(=O)OC)nc2c1` [Albendazole] has a remaining activity at 3.75 µM ([1]; Well no.=2083) of 105% and a remaining activity at 1.25 µM ([2]; Well no.=2083) of 103%.

With `CC1CNc2c(cccc2S(=O)(=O)N[C@@H](CCCNC(=N)N)C(=O)N2CC[C@@H](C)C[C@@H]2C(=O)O)C1` (stereo partly drawn) [Argatroban] the remaining activity at 3.75 µM ([1]; Well no.=2196) was 97.9% and the remaining activity at 1.25 µM ([2]; Well no.=2196) was 97.1%.

With `CCCCc1nc(Cl)c(CO)n1Cc1ccc(-c2ccccc2-c2nnn[nH]2)cc1` [Losartan potassium] the remaining activity at 3.75 µM ([1]; Well no.=2278) was 95.8% and the remaining activity at 1.25 µM ([2]; Well no.=2278) was 94.3%.

`O=c1onc2n1-c1cc(Br)ccc1OC2` [NS 2028] was tested, and the remaining activity at 3.75 µM ([1]; Well no.=990) was 99.6% and the remaining activity at 1.25 µM ([2]; Well no.=990) was 99.8%.

With `CC[n+]1c(/C=C/N(C)c2ccccc2)n(-c2ccccc2)c2ccc(-c3nc4ccccc4s3)cc21` [Akt Inhibitor IV] the remaining activity at 3.75 µM ([1]; Well no.=2311) was 101% and the remaining activity at 1.25 µM ([2]; Well no.=2311) was 102%.

Molecule `CCC1=C[C@@H]2CN3CCc4c([nH]c5ccccc45)[C@@](C(=O)OC)(C2)[C@@H]13` [Catharanthine] has a remaining activity at 3.75 µM ([1]; Well no.=3595) of 107% and a remaining activity at 1.25 µM ([2]; Well no.=3595) of 104%.

Molecule `C=CC1=C(C)/C(=C/c2[nH]c(Cc3[nH]c(/C=C4\NC(=O)C(C)=C4C=C)c(C)c3CCC(=O)O)c(CCC(=O)O)c2C)NC1=O` [Bilirubin] has a remaining activity at 3.75 µM ([1]; Well no.=7013) of 104% and a remaining activity at 1.25 µM ([2]; Well no.=7013) of 103%.

`C[C@@H]1O[C@@H](O[C@H]2C[C@@H](O)[C@]3(CO)[C@H]4[C@H](O)C[C@]5(C)[C@@H](C6=CC(=O)OC6)CC[C@]5(O)[C@@H]4CC[C@]3(O)C2)[C@H](O)[C@H](O)[C@H]1O` [Ouabain] gave a remaining activity at 3.75 µM ([1]; Well no.=1088) of 94.6% and a remaining activity at 1.25 µM ([2]; Well no.=1088) of 93.1%.

For `C[C@@H]1O[C@@H](O[C@H]2[C@H](Oc3cc(O)c(C(=O)CCc4ccc(O)cc4)c(O)c3)O[C@H](CO)[C@@H](O)[C@@H]2O)[C@H](O)[C@H](O)[C@H]1O` [Naringin Dihydrochalcone], the remaining activity at 3.75 µM ([1]; Well no.=8148) was 97.1% and the remaining activity at 1.25 µM ([2]; Well no.=8148) was 106%.

`C[C@@H]1CN(c2c(F)c(N)c3c(=O)c(C(=O)O)cn(C4CC4)c3c2F)C[C@H](C)N1` [Sparfloxacin] gave a remaining activity at 3.75 µM ([1]; Well no.=2251) of 97.4% and a remaining activity at 1.25 µM ([2]; Well no.=2251) of 95.3%.

With `C=CCN1CCCC1CNC(=O)c1cc(S(N)(=O)=O)cc(OC)c1OC` (stereo not drawn) [Veralipride] the remaining activity at 3.75 µM ([1]; Well no.=7715) was 97.9% and the remaining activity at 1.25 µM ([2]; Well no.=7715) was 93.1%.

Molecule `c1cc2c(cc1[C@H]1OC[C@@H]3[C@H]1CO[C@H]3c1ccc3c(c1)OCO3)OCO2` [(-)-Asarinin] has a remaining activity at 3.75 µM ([1]; Well no.=3160) of 101% and a remaining activity at 1.25 µM ([2]; Well no.=3160) of 98.8%.

`OC(c1ccccc1)(c1ccccc1)C1CCNCC1` [Azacyclonol] showed a remaining activity at 3.75 µM ([1]; Well no.=5068) of 103% and a remaining activity at 1.25 µM ([2]; Well no.=5068) of 97.2%.

For `NC(=O)Cc1cccc(C(=O)c2ccccc2)c1N` [Nepafenac], the remaining activity at 3.75 µM ([1]; Well no.=4761) was 104% and the remaining activity at 1.25 µM ([2]; Well no.=4761) was 103%.

Molecule `c1ccc(CCCN2CCN(CCOC(c3ccccc3)c3ccccc3)CC2)cc1` [GBR-12935 dihydrochloride] has a remaining activity at 3.75 µM ([1]; Well no.=765) of 87.4% and a remaining activity at 1.25 µM ([2]; Well no.=765) of 91%.

For `Cc1ccc(Oc2ccnc3cc(-c4cnn(C5CCNCC5)c4)ccc23)cc1` [HS-1371], the remaining activity at 3.75 µM ([1]; Well no.=6820) was 85.5% and the remaining activity at 1.25 µM ([2]; Well no.=6820) was 91.1%.

Molecule `CCCCCCCCCCCCCCCCCCOCC(COP(=O)([O-])OCC[N+](C)(C)C)OC` (stereo not drawn) [ET-18-OCH3] has a remaining activity at 3.75 µM ([1]; Well no.=502) of 102% and a remaining activity at 1.25 µM ([2]; Well no.=502) of 104%.

With `O=Nc1c(-c2c(O)[nH]c3ccccc23)[nH]c2ccccc12` [Indirubin-3?-monoxime] the remaining activity at 3.75 µM ([1]; Well no.=2358) was 106% and the remaining activity at 1.25 µM ([2]; Well no.=2358) was 99.7%.
